According to patent publication US20210002649A1, “COMPOSITIONS AND METHODS FOR TREATING CANCER” (Beth Israel Deaconess Medical Center, Inc., priority 2018, published 2021):
Where a SMILES comes first, the peptide text is derived from it. The star is where a group is joined. Cbz = O=C(OCc1ccccc1)*

What was measured:
[1] = system: JAK-STAT, NF-kB, and TNFα pathway; assay: RNA-seq analysis of immune suppressive pathways in Hi-Myc mice; assay type: in vivo; conditions: I3C treated Hi-Myc mice, versus vehicle (FIGS. 17-20)
[2] = biological target: T1, WWP1 (Mus musculus, UniProt Q8BZZ3); assay: Active CD8 T cell tumor infiltration, syngenic mice model; assay type: in vivo
T1 construct: from tissue
T1 sequence (Q8BZZ3 whole entry): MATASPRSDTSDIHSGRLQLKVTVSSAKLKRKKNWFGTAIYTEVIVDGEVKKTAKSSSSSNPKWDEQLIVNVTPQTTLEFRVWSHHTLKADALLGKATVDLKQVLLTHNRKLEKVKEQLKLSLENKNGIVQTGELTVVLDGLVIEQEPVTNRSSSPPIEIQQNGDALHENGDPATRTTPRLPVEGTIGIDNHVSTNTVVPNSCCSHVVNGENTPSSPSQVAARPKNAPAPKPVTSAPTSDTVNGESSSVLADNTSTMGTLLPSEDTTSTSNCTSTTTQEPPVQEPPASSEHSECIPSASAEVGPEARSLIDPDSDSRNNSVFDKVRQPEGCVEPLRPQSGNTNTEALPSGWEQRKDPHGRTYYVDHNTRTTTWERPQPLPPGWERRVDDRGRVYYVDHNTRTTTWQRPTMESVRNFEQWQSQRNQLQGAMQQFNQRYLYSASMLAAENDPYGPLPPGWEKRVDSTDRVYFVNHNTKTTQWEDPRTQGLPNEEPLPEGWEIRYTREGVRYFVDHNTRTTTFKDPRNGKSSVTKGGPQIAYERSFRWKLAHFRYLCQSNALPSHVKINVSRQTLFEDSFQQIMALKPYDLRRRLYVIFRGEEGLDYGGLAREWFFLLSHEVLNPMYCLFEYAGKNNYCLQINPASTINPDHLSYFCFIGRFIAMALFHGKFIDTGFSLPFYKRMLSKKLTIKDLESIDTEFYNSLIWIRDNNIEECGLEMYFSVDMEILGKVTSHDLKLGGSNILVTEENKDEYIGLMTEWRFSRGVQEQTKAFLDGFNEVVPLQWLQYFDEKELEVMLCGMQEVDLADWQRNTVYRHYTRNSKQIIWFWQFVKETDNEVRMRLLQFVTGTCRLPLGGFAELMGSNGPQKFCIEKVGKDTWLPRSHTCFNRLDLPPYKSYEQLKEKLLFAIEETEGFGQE

[3] = system: PD-L1 protein levels in WWP1 knock-out cells; assay: PD-L1 protein levels in WWP1 knock-out cells (gel image); assay type: cell-based; conditions: MG132 treatment (FIG. 12)

Structure (SMILES) | immune suppressive pathways (RNA-seq) [1] | active CD8 T cell tumor infiltration ([2]; syngenic mice (FIG. 16)) | tumor size ([2]; tumors, after WWP1 inhibition by I3C) | PD-L1 protein levels [3]
OCc1c[nH]c2ccccc12 [I3C, indole-3-carbinol] | down-regulation of multiple immune suppressive pathway (JAK-STAT, NF-kB, and TNFα pathway) | triggers active CD8 T cell tumor infiltration | reducing tumor size | 
CC(C)C[C@@H](C=O)NC(=O)[C@H](CC(C)C)NC(=O)[C@H](CC(C)C)NC(=O)OCc1ccccc1 [MG132] (Cbz-Leu-Leu-Leu-aldehyde) |  |  |  | restored PD-L1 protein levels
